In the NIST ThermoML archive (doi:10.1016/j.jct.2013.05.030):
± gives the expanded uncertainty stated by the source.

Key:
[1] = activity coefficient (dimensionless); of the first substance listed, at infinite dilution; xn = mol fraction of the nth substance listed; settings: 101 kPa, Liquid, Chromatography, x1 = 0
[2] = 293.15 K; 101.33 kPa; Liquid; Vibrating tube method

| Structure (SMILES) | activity coefficient ([1]; 313.15 K) | activity coefficient ([1]; 333.15 K) | activity coefficient ([1]; 353.15 K) | activity coefficient ([1]; 373.15 K) | mass density [2] [kg/m3] |
| --- | --- | --- | --- | --- | --- |
| C=CCCCC [hex-1-ene] + CCCCCCCCCCCCCC[P+](CCCCCC)(CCCCCC)CCCCCC.O=S(=O)([N-]S(=O)(=O)C(F)(F)F)C(F)(F)F | 0.907 ± 0.066 | 0.921 ± 0.067 | 0.93 ± 0.068 | 0.942 ± 0.068 | – |
| C#CCCC [1-pentyne] + CCCCCCCCCCCCCC[P+](CCCCCC)(CCCCCC)CCCCCC.O=S(=O)([N-]S(=O)(=O)C(F)(F)F)C(F)(F)F | 0.613 ± 0.048 | 0.636 ± 0.049 | 0.663 ± 0.051 | 0.699 ± 0.053 | – |
| CCCCCCCCC [nonane] + CCCCCCCCCCCCCC[P+](CCCCCC)(CCCCCC)CCCCCC.O=S(=O)([N-]S(=O)(=O)C(F)(F)F)C(F)(F)F | 1.6 ± 0.12 | 1.67 ± 0.13 | 1.77 ± 0.14 | 1.87 ± 0.14 | – |
| CO [methanol] + CCCCCCCCCCCCCC[P+](CCCCCC)(CCCCCC)CCCCCC.O=S(=O)([N-]S(=O)(=O)C(F)(F)F)C(F)(F)F | 1.08 ± 0.079 | 1.03 ± 0.074 | 0.922 ± 0.067 | 0.863 ± 0.063 | – |
| C=CCCCCC [1-heptene] + CCCCCCCCCCCCCC[P+](CCCCCC)(CCCCCC)CCCCCC.O=S(=O)([N-]S(=O)(=O)C(F)(F)F)C(F)(F)F | 1.03 ± 0.075 | 1.06 ± 0.077 | 1.1 ± 0.08 | 1.12 ± 0.082 | – |
| CCCCCCCCCCCCCC[P+](CCCCCC)(CCCCCC)CCCCCC.O=S(=O)([N-]S(=O)(=O)C(F)(F)F)C(F)(F)F | – | – | – | – | 1068.87 ± 8.6 |
| C#CCCCCC [1-heptyne] + CCCCCCCCCCCCCC[P+](CCCCCC)(CCCCCC)CCCCCC.O=S(=O)([N-]S(=O)(=O)C(F)(F)F)C(F)(F)F | 0.726 ± 0.055 | 0.749 ± 0.056 | 0.762 ± 0.057 | 0.782 ± 0.058 | – |
| C1CCCCCCC1 [cyclooctane] + CCCCCCCCCCCCCC[P+](CCCCCC)(CCCCCC)CCCCCC.O=S(=O)([N-]S(=O)(=O)C(F)(F)F)C(F)(F)F | 0.963 ± 0.07 | 0.998 ± 0.072 | 1.07 ± 0.078 | 1.12 ± 0.082 | – |
| c1ccccc1 [benzene] + CCCCCCCCCCCCCC[P+](CCCCCC)(CCCCCC)CCCCCC.O=S(=O)([N-]S(=O)(=O)C(F)(F)F)C(F)(F)F | 0.391 ± 0.036 | 0.405 ± 0.037 | 0.417 ± 0.038 | 0.437 ± 0.039 | – |
| CCCCCC [hexane] + CCCCCCCCCCCCCC[P+](CCCCCC)(CCCCCC)CCCCCC.O=S(=O)([N-]S(=O)(=O)C(F)(F)F)C(F)(F)F | 1.1 ± 0.08 | 1.11 ± 0.081 | 1.12 ± 0.082 | 1.13 ± 0.083 | – |
| C1CCCCCC1 [cycloheptane] + CCCCCCCCCCCCCC[P+](CCCCCC)(CCCCCC)CCCCCC.O=S(=O)([N-]S(=O)(=O)C(F)(F)F)C(F)(F)F | 0.87 ± 0.064 | 0.881 ± 0.065 | 0.891 ± 0.065 | 0.905 ± 0.066 | – |
| CCCO [propan-1-ol] + CCCCCCCCCCCCCC[P+](CCCCCC)(CCCCCC)CCCCCC.O=S(=O)([N-]S(=O)(=O)C(F)(F)F)C(F)(F)F | 1.28 ± 0.095 | 1.15 ± 0.084 | 1.07 ± 0.078 | 0.953 ± 0.069 | – |
| C#CCCCCCCC [1-nonyne] + CCCCCCCCCCCCCC[P+](CCCCCC)(CCCCCC)CCCCCC.O=S(=O)([N-]S(=O)(=O)C(F)(F)F)C(F)(F)F | 0.853 ± 0.063 | 0.915 ± 0.067 | 0.956 ± 0.069 | 0.979 ± 0.071 | – |
| C#CCCCC [1-hexyne] + CCCCCCCCCCCCCC[P+](CCCCCC)(CCCCCC)CCCCCC.O=S(=O)([N-]S(=O)(=O)C(F)(F)F)C(F)(F)F | 0.693 ± 0.053 | 0.709 ± 0.054 | 0.72 ± 0.054 | 0.732 ± 0.055 | – |
| C=CCCC [1-pentene] + CCCCCCCCCCCCCC[P+](CCCCCC)(CCCCCC)CCCCCC.O=S(=O)([N-]S(=O)(=O)C(F)(F)F)C(F)(F)F | 0.806 ± 0.06 | 0.824 ± 0.061 | 0.842 ± 0.062 | 0.85 ± 0.063 | – |
| Cc1ccccc1 [toluene] + CCCCCCCCCCCCCC[P+](CCCCCC)(CCCCCC)CCCCCC.O=S(=O)([N-]S(=O)(=O)C(F)(F)F)C(F)(F)F | 0.452 ± 0.039 | 0.472 ± 0.04 | 0.486 ± 0.041 | 0.51 ± 0.042 | – |
| CCC(C)=O [butanone] + CCCCCCCCCCCCCC[P+](CCCCCC)(CCCCCC)CCCCCC.O=S(=O)([N-]S(=O)(=O)C(F)(F)F)C(F)(F)F | 0.321 ± 0.034 | 0.309 ± 0.033 | 0.324 ± 0.034 | 0.331 ± 0.034 | – |
| C#CCCCCCC [1-octyne] + CCCCCCCCCCCCCC[P+](CCCCCC)(CCCCCC)CCCCCC.O=S(=O)([N-]S(=O)(=O)C(F)(F)F)C(F)(F)F | 0.836 ± 0.062 | 0.865 ± 0.063 | 0.886 ± 0.065 | 0.899 ± 0.066 | – |
| CC(C)=O [acetone] + CCCCCCCCCCCCCC[P+](CCCCCC)(CCCCCC)CCCCCC.O=S(=O)([N-]S(=O)(=O)C(F)(F)F)C(F)(F)F | 0.297 ± 0.033 | 0.327 ± 0.034 | 0.332 ± 0.034 | 0.334 ± 0.034 | – |
| CCCCCCCC [octane] + CCCCCCCCCCCCCC[P+](CCCCCC)(CCCCCC)CCCCCC.O=S(=O)([N-]S(=O)(=O)C(F)(F)F)C(F)(F)F | 1.4 ± 0.1 | 1.44 ± 0.11 | 1.46 ± 0.11 | 1.49 ± 0.11 | – |
| C1CCCC1 [cyclopentane] + CCCCCCCCCCCCCC[P+](CCCCCC)(CCCCCC)CCCCCC.O=S(=O)([N-]S(=O)(=O)C(F)(F)F)C(F)(F)F | 0.687 ± 0.052 | 0.698 ± 0.053 | 0.713 ± 0.054 | 0.721 ± 0.055 | – |
| C1CCCCC1 [cyclohexane] + CCCCCCCCCCCCCC[P+](CCCCCC)(CCCCCC)CCCCCC.O=S(=O)([N-]S(=O)(=O)C(F)(F)F)C(F)(F)F | 0.795 ± 0.059 | 0.797 ± 0.059 | 0.798 ± 0.059 | 0.8 ± 0.059 | – |
| CCCCC [pentane] + CCCCCCCCCCCCCC[P+](CCCCCC)(CCCCCC)CCCCCC.O=S(=O)([N-]S(=O)(=O)C(F)(F)F)C(F)(F)F | 0.96 ± 0.07 | 0.978 ± 0.071 | 0.99 ± 0.072 | 1 ± 0.072 | – |
